In ChEMBL document CHEMBL2157914, “Synthesis, anti-inflammatory and antimicrobial evaluation of novel 1-acetyl-3,5-diaryl-4,5-dihydro (1H) pyrazole derivatives bearing urea, thiourea and sulfonamide moieties” (2012):
Converted amounts (≈) assume the structure as drawn. The source made the active and inactive calls. No cut-off for these calls is given here.

Assays:
Aspergillus niger [1] = experiment: Antifungal activity against Aspergillus niger MTCC 281 after 2 to 3 days by agar well diffusion method; format: functional
Candida albicans [2] = experiment: Antifungal activity against Candida albicans MTCC 227 after 2 to 3 days by agar well diffusion method; format: functional
Bacillus subtilis [3] = experiment: Antibacterial activity against Bacillus subtilis MTCC 441 after 24 hrs by agar well diffusion method; format: functional; details: MTCC 441, 24 h
Salmonella typhimurium [4] = experiment: Antibacterial activity against Salmonella typhimurium MTCC 98 after 24 hrs by agar well diffusion method; format: functional, Salmonella enterica subsp. enterica serovar Typhimurium; details: Salmonella enterica, MTCC 98, 24 h
THP-1 [5] = experiment: Antiinflammatory activity in human THP1 cells assessed as inhibition of LPS-stimulated TNFalpha production at 10 uM incubated for 30 mins prior to LPS-challenge measured 24 hrs post LPS challenge by ELISA; format: functional
Escherichia coli = experiment: Antibacterial activity against Escherichia coli MTCC 443 after 24 hrs by agar well diffusion method; format: functional; details: MTCC 443, 24 h
Aspergillus flavus [6] = experiment: Antifungal activity against Aspergillus flavus MTCC 277 after 2 to 3 days by agar well diffusion method; format: functional
THP-1 [7] = experiment: Antiinflammatory activity in human THP1 cells assessed as inhibition of LPS-stimulated IL-6 production at 10 uM incubated for 30 mins prior to LPS-challenge measured 24 hrs post LPS-challenge by ELISA; format: functional
Fusarium solani [8] = experiment: Antifungal activity against Fusarium solani MTCC 350 after 2 to 3 days by agar well diffusion method; format: functional
Staphylococcus aureus [9] = experiment: Antibacterial activity against Staphylococcus aureus MTCC 96 after 24 hrs by agar well diffusion method; format: functional; details: MTCC 96, 24 h
Salmonella typhimurium [10] = experiment: Antibacterial activity against Salmonella typhimurium MTCC 98 up to 200 ug/mL after 24 hrs by agar well diffusion method; format: functional, organism-based; details: Salmonella enterica subsp. enterica serovar Typhimurium
Staphylococcus aureus [11] = experiment: Antibacterial activity against Staphylococcus aureus MTCC 96 up to 200 ug/mL after 24 hrs by agar well diffusion method; format: functional, organism-based
Candida albicans [12] = experiment: Antifungal activity against Candida albicans MTCC 227 up to 200 ug/mL after 2 to 3 days by agar well diffusion method; format: functional, organism-based
Aspergillus flavus [13] = experiment: Antifungal activity against Aspergillus flavus MTCC 277 up to 200 ug/mL after 2 to 3 days by agar well diffusion method; format: functional, organism-based
Aspergillus niger [14] = experiment: Antifungal activity against Aspergillus niger MTCC 281 up to 200 ug/mL after 2 to 3 days by agar well diffusion method; format: functional, organism-based
Bacillus subtilis [15] = experiment: Antibacterial activity against Bacillus subtilis MTCC 441 up to 200 ug/mL after 24 hrs by agar well diffusion method; format: functional, organism-based
Fusarium solani [16] = experiment: Antifungal activity against Fusarium solani MTCC 350 up to 200 ug/mL after 2 to 3 days by agar well diffusion method; format: functional, organism-based

| SMILES | MIC (Aspergillus niger [1]) [µg/mL] | MIC (Candida albicans [2]) [µg/mL] | MIC (Bacillus subtilis [3]) [µg/mL] | MIC (Salmonella typhimurium [4]) [µg/mL] | MIC (Escherichia coli) [µg/mL] | MIC (Aspergillus flavus [6]) [µg/mL] | MIC (Fusarium solani [8]) [µg/mL] | MIC (Staphylococcus aureus [9]) [µg/mL] | inhibition at 10 µM (THP-1 [5]) [%] | inhibition at 10 µM (THP-1 [7]) [%] | Activity (Salmonella typhimurium [10]) | Activity (Staphylococcus aureus [11]) | Activity (Candida albicans [12]) | Activity (Aspergillus flavus [13]) | Activity (Aspergillus niger [14]) | Activity (Bacillus subtilis [15]) | Activity (Fusarium solani [16]) |
| --- | --- | --- | --- | --- | --- | --- | --- | --- | --- | --- | --- | --- | --- | --- | --- | --- | --- |
| COc1ccc(C2=NN(C(C)=O)C(c3ccc(NC(=O)Nc4cc(F)ccc4C)cc3)C2)cc1OC (stereo not drawn) |  |  |  |  | 90 (≈ 183 µM) |  |  |  | 28 | 31 | inactive | inactive | inactive | inactive | inactive | inactive | inactive |
| COc1ccc(C2=NN(C(C)=O)C(c3ccc(NC(=O)Nc4cccc(Cl)c4F)cc3)C2)cc1OC (stereo not drawn) |  | 90 (≈ 176 µM) | 90 (≈ 176 µM) | 90 (≈ 176 µM) | 90 (≈ 176 µM) |  |  | 90 (≈ 176 µM) | 61 | 76 |  |  |  | inactive | inactive |  | inactive |
| COc1ccc(C2=NN(C(C)=O)C(c3ccc(N)cc3)C2)cc1OC (stereo not drawn) |  |  |  |  | 90 (≈ 265 µM) |  |  |  | 0 | 0 | inactive | inactive | inactive | inactive | inactive | inactive | inactive |
| O=C(O)c1cn(C2CC2)c2cc(N3CCNCC3)c(F)cc2c1=O [CIPROFLOXACIN] |  |  | 15 (≈ 45.3 µM) | 20 (≈ 60.4 µM) | 15 (≈ 45.3 µM) |  |  | 20 (≈ 60.4 µM) |  |  |  |  |  |  |  |  |  |
| COc1ccc(C2=NN(C(C)=O)C(c3ccc(NS(=O)(=O)c4ccc(OC)c(OC)c4)cc3)C2)cc1OC (stereo not drawn) |  |  | 90 (≈ 167 µM) | 90 (≈ 167 µM) | 90 (≈ 167 µM) |  | 90 (≈ 167 µM) |  | 0 | 0 |  | inactive | inactive | inactive | inactive |  |  |
| Clc1ccc(COC(Cn2ccnc2)c2ccc(Cl)cc2Cl)c(Cl)c1 (stereo not drawn) [MICONAZOLE] | 15 (≈ 36 µM) | 20 (≈ 48.1 µM) |  |  |  | 20 (≈ 48.1 µM) | 15 (≈ 36 µM) |  |  |  |  |  |  |  |  |  |  |

Second part, led by results:

| MIC (Aspergillus niger [1]) [µg/mL] | MIC (Candida albicans [2]) [µg/mL] | MIC (Bacillus subtilis [3]) [µg/mL] | MIC (Salmonella typhimurium [4]) [µg/mL] | MIC (Escherichia coli) [µg/mL] | MIC (Aspergillus flavus [6]) [µg/mL] | MIC (Fusarium solani [8]) [µg/mL] | MIC (Staphylococcus aureus [9]) [µg/mL] | SMILES | inhibition at 10 µM (THP-1 [5]) [%] | inhibition at 10 µM (THP-1 [7]) [%] | Activity (Salmonella typhimurium [10]) | Activity (Staphylococcus aureus [11]) | Activity (Candida albicans [12]) | Activity (Aspergillus flavus [13]) | Activity (Aspergillus niger [14]) | Activity (Bacillus subtilis [15]) | Activity (Fusarium solani [16]) |
| --- | --- | --- | --- | --- | --- | --- | --- | --- | --- | --- | --- | --- | --- | --- | --- | --- | --- |
| 60 (≈ 117 µM) | 30 (≈ 58.6 µM) | 20 (≈ 39.1 µM) | 40 (≈ 78.2 µM) | 20 (≈ 39.1 µM) | 20 (≈ 39.1 µM) | 20 (≈ 39.1 µM) | 55 (≈ 108 µM) | COc1ccc(C2=NN(C(C)=O)C(c3ccc(NS(=O)(=O)c4cc(F)ccc4C)cc3)C2)cc1OC (stereo not drawn) | 0 | 0 |  |  |  |  |  |  |  |
| 90 (≈ 171 µM) | 80 (≈ 152 µM) | 90 (≈ 171 µM) | 90 (≈ 171 µM) | 60 (≈ 114 µM) | 80 (≈ 152 µM) | 75 (≈ 142 µM) | 75 (≈ 142 µM) | COc1ccc(C2=NN(C(C)=O)C(c3ccc(NC(=O)Nc4ccccc4C(F)(F)F)cc3)C2)cc1OC (stereo not drawn) | 61 | 80 |  |  |  |  |  |  |  |
|  | 90 (≈ 178 µM) | 65 (≈ 129 µM) | 35 (≈ 69.4 µM) | 20 (≈ 39.6 µM) | 90 (≈ 178 µM) | 90 (≈ 178 µM) | 45 (≈ 89.2 µM) | COc1ccc(NC(=S)Nc2ccc(C3CC(c4ccc(OC)c(OC)c4)=NN3C(C)=O)cc2)cc1 (stereo not drawn) | 3 | 10 |  |  |  |  | inactive |  |  |
| 20 (≈ 40 µM) | 55 (≈ 110 µM) | 35 (≈ 70.1 µM) | 45 (≈ 90.1 µM) | 30 (≈ 60 µM) | 35 (≈ 70.1 µM) | 20 (≈ 40 µM) | 60 (≈ 120 µM) | COc1ccc(C2=NN(C(C)=O)C(c3ccc(NC(=S)Nc4ccc(C#N)cc4)cc3)C2)cc1OC (stereo not drawn) | 0 | 21 |  |  |  |  |  |  |  |
| 75 (≈ 138 µM) | 40 (≈ 73.7 µM) | 40 (≈ 73.7 µM) | 60 (≈ 111 µM) | 40 (≈ 73.7 µM) | 30 (≈ 55.3 µM) | 60 (≈ 111 µM) | 55 (≈ 101 µM) | COc1ccc(C2=NN(C(C)=O)C(c3ccc(NC(=O)Nc4ccccc4OC(F)(F)F)cc3)C2)cc1OC (stereo not drawn) | 58 | 75 |  |  |  |  |  |  |  |
| 15 (≈ 26.9 µM) | 25 (≈ 44.8 µM) | 65 (≈ 116 µM) | 30 (≈ 53.7 µM) | 30 (≈ 53.7 µM) | 40 (≈ 71.6 µM) | 15 (≈ 26.9 µM) | 30 (≈ 53.7 µM) | COc1ccc(C2=NN(C(C)=O)C(c3ccc(NS(=O)(=O)c4ccc(Br)cc4)cc3)C2)cc1OC (stereo not drawn) | 0 | 0 |  |  |  |  |  |  |  |
|  | 90 (≈ 287 µM) | 90 (≈ 287 µM) | 90 (≈ 287 µM) | 80 (≈ 255 µM) |  |  |  | COc1ccc(C(=O)/C=C/c2ccc([N+](=O)[O-])cc2)cc1OC | 0 | 0 |  | inactive |  | inactive | inactive |  | inactive |
